According to patent publication EP0525360B1, “Novel phenylacetamide derivatives and processes for the preparation thereof” (KOREA RESEARCH INSTITUTE OF CHEMICAL TECHNOLOGY, priority 1991, dated 1993):
Where a name gives a salt, the structure may show the parent alone.

Key:
Format in all cases: in vivo
[1] = system: mice; assay: Tail-flick test (radiant heat)
Protocol: Radiant heat was applied using a beam of high-intensity light focused on a tail spot. The response time, defined as the interval between the onset of the stimulus and the tail flick, was measured electronically(to the nearest 0.1 second). The beam intensity was set at a level giving a mean control reaction time of 3.8±0.4 seconds. […] The percentage of inhibition was determined by the following equation: Inhibition(%) =(Reaction time of the treated group - Reaction time of the control group)/(Reaction time of the control group)x 100 [formula]

[2] = system: KTC-ICR mice; assay: acetic acid induced writhing test; conditions: Mus musculus; oral; 0.9% acetic acid i.p. 60 minutes later; writhings during 10 minutes; mice 20 to 25g; Examples 1 to 32
Protocol: (§1) The KTC-ICR mice derived from Charles River Breeding Laboratory in the United States and provided by Experimental Animal Laboratory of Korea Research Institute of Chemical Technology were used as test animals. […] They were tested after having been adjusted to the testing environment for a week. Food and water were given freely; and illumination was maintained on a 12-hour cycle.
(§2) Experiments were performed in two ways: that is, the acetic acid induced writhing test and the phenyl-1,4-benzoquinone(PBQ) induced writhing test.
Solutions for the acetic acid induced writhing test were prepared by dissolving one of the end products prepared in Examples […] in a saline solution containing 1% by weight of Tween 80 to have a concentration of 5mg/mℓ and diluting it serially with the saline solution. The test solutions were administered orally in a dose of 0.3mℓ per 30g of body weight, using the 5 ICR mice for each test. 60 minutes later, 0.9% acetic acid solution was administered intraperitoneally in a dose of 0.1mℓ per 30g of body weight. 3 minutes thereafter, the number of writhings generated during a period of 10 minutes due to the administration of acetic acid was measured. For comparison purpose, initially, saline solution alone was administered orally to the control group. 60 minutes thereafter, 0.9% acetic acid solution was administered intraperitoneally to the control group.
(§3) The number of writhings suffered by the test group was compared with that of the control group; and the analgesic effect was measured in terms of the percentage of inhibition of writhing(I. W.). I. W. (%) =(A - B)/(A)x 100 [formula] A : the number of writhings suffered by the control group, B : the number of writhings suffered by the test group.
(§4) These ED50 values for the test compounds are shown in the last column of Table 1.

[3] = system: test animals; assay: Behavior analysis (side-effect or toxicity scores); design: key to Sedation / Dyspnoea / Vasodilation / Convulsion / Salivation / Urination: behavior score; higher number = greater side effects; conditions: behavior score; for Convulsion / Salivation / Urination: normal value 0; for Dyspnoea / Ptosis / Sedation / Vasodilation: normal value 4
Description: In order to monitor a harmful side-effect or toxicity of the compounds having the formula(I), various behavioral changes in the test animals were observed. […] The higher the number is, the greater the side effects are.

[4] = system: KTC-ICR mice; assay: phenyl-1,4-benzoquinone(PBQ) induced writhing test; conditions: Mus musculus; oral; 0.02% PBQ i.p. 60 minutes later; writhings during 5 minutes; mice 10 to 15g; Examples 33 to 46
Protocol: as §1, §2
Alternatively, solutions for the PBQ induced writhing test were prepared by dissolving one of the products synthesized in Examples 33 to 46 in a mixture of Tween 80, alcohol and distilled water (1:5:94); and administered orally to the 5 ICR mice for each test in a dose of 0.3mℓ per 30g of body weight. 60 minutes later, 0.02% PBQ solution was administered intraperitoneally in a dose of 0.1mℓ per 30g of body weight of the test animals. 5 minutes thereafter, at the temperature of 40°C, the number of writhings occurred during a period of 5 minutes due to the PBQ solution administered was measured. For comparison, only the mixture of Tween 80, alcohol and distilled water was administered orally to the control group; and, after 60 minutes, the PBQ solution was administered intraperitoneally to the control group in the same manner as mentioned above.
as §3, §4

## COc1cc(CNC(=O)CCCC/C=C/C(C)C)ccc1O [Capsaicin, trans-8-methyl-N-vanillyl-6-nonenamide, reference compound]
[1]; mouse, in vivo, 25 mg/kg
  Inhibition(%): 90%

## COc1cc(CC(=O)NCCCc2ccc(C)c(C)c2)ccc1OCCN [Example 1-l-tartarate]
[1]; p. o., dose 1.25 mg/Kg
  Inhibition(%): 50%
[1]; p. o., dose 2.5 mg/Kg
  Inhibition(%): 90%

## Cc1ccc(CCCNC(=O)Cc2ccc(OCCN)cc2)cc1C [Example 2]
[2]
  ED50: 3.98 mg/kg

## Cc1ccc(CCCNC(=O)Cc2ccc(OCCN)c(F)c2)cc1C [Example 3]
[2]
  ED50: 2.95 mg/kg

## Cc1ccc(CCCNC(=O)Cc2ccc(OCCN)c(Cl)c2)cc1C [Example 4]
[2]
  ED50: 4.78 mg/kg

## Cc1cccc(CCCNC(=O)Cc2ccc(OCCN)cc2)c1 [Example 6]
[2]
  ED50: 26.3 mg/kg

## Cc1cccc(CCCNC(=O)Cc2ccc(OCCN)c(F)c2)c1 [Example 7]
[2]
  ED50: 2.3 mg/kg

## Cc1cccc(CCCNC(=O)Cc2ccc(OCCN)c(Cl)c2)c1 [Example 8]
[2]
  ED50: 42.6 mg/kg

## COc1cc(CC(=O)NCCCc2ccc(C)cc2)ccc1OCCN [Example 9]
[2]
  ED50: 1.73 mg/kg

## Cc1ccc(CCCNC(=O)Cc2ccc(OCCN)cc2)cc1 [Example 10]
[2]
  ED50: 7.9 mg/kg

## Cc1ccc(CCCNC(=O)Cc2ccc(OCCN)c(Cl)c2)cc1 [Example 12]
[2]
  ED50: 4.7 mg/kg

## COc1cc(CC(=O)NCCCc2cc(C)cc(C)c2)ccc1OCCN [Example 13]
[2]
  ED50: 4.6 mg/kg

## Cc1cc(C)cc(CCCNC(=O)Cc2ccc(OCCN)cc2)c1 [Example 14]
[2]
  ED50: 3.16 mg/kg

## Cc1cc(C)cc(CCCNC(=O)Cc2ccc(OCCN)c(Cl)c2)c1 [Example 16]
[2]
  ED50: 123 mg/kg

## COc1cc(CC(=O)NCCc2cc(C)cc(C)c2)ccc1OCCN [Example 17]
[2]
  ED50: 0.77 mg/kg

## COc1cc(CC(=O)NCCCc2ccc(Cl)cc2)ccc1OCCN [Example 18, N-{3-(4-chlorophenyl)propyl}-4-(2-aminoethoxy)-3-methoxyphenylacetamide]
[2]
  ED50: 0.4 mg/kg

## NCCOc1ccc(CC(=O)NCCCc2ccc(Cl)cc2)cc1 [Example 19, N-{3-(4-chlorophenyl)propyl}-4-(2-aminoethoxy)phenylacetamide]
[2]
  ED50: 0.03 mg/kg

## NCCOc1ccc(CC(=O)NCCCc2ccc(Cl)cc2)cc1F [Example 20, N-{3-(4-chlorophenyl)propyl}-4-(2-aminoethoxy)-3-fluorophenylacetamide]
[2]
  ED50: 0.07 mg/kg

## NCCOc1ccc(CC(=O)NCCCc2ccc(Cl)cc2)cc1Cl [Example 21, N-{3-(4-chlorophenyl)propyl}-4-(2-aminoethoxy)-3-chlorophenylacetamide]
[2]
  ED50: 0.04 mg/kg

## COc1cc(CC(=O)NCCCc2ccc(Cl)c(Cl)c2)ccc1OCCN [Example 24, N-{3-(3,4-dichlorophenyl)propyl}-4-(2-aminoethoxy)-3-methoxyphenylacetamide]
[2]
  ED50: 0.66 mg/kg

## COc1cc(CC(=O)NCCCc2ccc3c(c2)OCO3)ccc1OCCN [Example 25, N-{3-(3,4-methylenedioxyphenyl)propyl}-4-(2-aminoethoxy)-3-methoxyphenylacetamide]
[2]
  ED50: 0.8 mg/kg

## COc1cc(CC(=O)NCCCc2cccc(C(F)(F)F)c2)ccc1OCCN [Example 26, N-{3-(3-trifluoromethylphenyl)propyl}-4-(2-aminoethoxy)-3-methoxyphenylacetamide]
[2]
  ED50: 1.54 mg/kg

## COc1cccc(CCCNC(=O)Cc2ccc(OCCN)c(OC)c2)c1 [Example 27, N-{3-(3-methoxyphenyl)propyl}-4-(2-aminoethoxy)-3-methoxyphenylacetamide]
[2]
  ED50: 1.25 mg/kg

## COc1cc(CC(=O)NCCCc2cccc(OCc3ccccc3)c2)ccc1OCCN [Example 28, N-{3-(3-benzyloxyphenyl)propyl}-4-(2-aminoethoxy)-3-methoxyphenylacetamide]
[2]
  ED50: 28.8 mg/kg

## COc1cc(CC(=O)NCCCCc2cccc(C)c2)ccc1OCCN [Example 30]
[2]
  ED50: 1.54 mg/kg

## Cc1cccc(CCCCNC(=O)Cc2ccc(OCCN)cc2)c1 [Example 31]
[2]
  ED50: 3.3 mg/kg

## Cc1ccc(CCCCNC(=O)Cc2ccc(OCCN)c(F)c2)cc1C [Example 32]
[2]
  ED50: 1.44 mg/kg

## Cc1ccc(CCCNC(=O)Cc2ccc(OCCN)c(O)c2)cc1C [Example 33, N-{3-(3,4-dimethylphenyl)propyl}-4-(2-aminoethoxy)-3-hydroxyphenylacetamide]
[3]; dose 0.2mg/Kg
  Convulsion: 0
  Salivation: 0
  Urination: 0
  Dyspnoea: 4
  Ptosis: 4
  Sedation: 4
  Vasodilation: 4
[3]; dose 0.6mg/Kg
  Convulsion: 0
  Salivation: 0
  Urination: 0
  Dyspnoea: 4
  Ptosis: 4
  Sedation: 5
  Vasodilation: 4
[3]; dose 2.0mg/Kg
  Convulsion: 0
  Salivation: 0
  Urination: 0
  Dyspnoea: 5
  Ptosis: 6
  Sedation: 7
  Vasodilation: 4
[4]
  ED50: 0.49 mg/kg

## Cc1ccc(CCCNC(=O)Cc2ccc(OCCN)c(N)c2)cc1C [Example 37, N-{3-(3,4-dimethylphenyl)propyl}-4-(2-aminoethoxy)-3-aminophenylacetamide]
[3]; dose 6.7mg/Kg
  Convulsion: 0
  Salivation: 0
  Urination: 0
  Dyspnoea: 4
  Ptosis: 4
  Sedation: 4
  Vasodilation: 4
[3]; dose 20mg/Kg
  Convulsion: 0
  Salivation: 0
  Urination: 0
  Dyspnoea: 4
  Ptosis: 5
  Sedation: 4
  Vasodilation: 4
[3]; dose 60mg/Kg
  Convulsion: 0
  Salivation: 0
  Urination: 0
  Dyspnoea: 4
  Ptosis: 6
  Sedation: 6
  Vasodilation: 4
[4]
  ED50: 22.7 mg/kg

## NCCOc1ccc(CC(=O)NCCCc2ccc(F)cc2)cc1N [Example 40-HCl]
[1]; p. o., dose 50 mg/Kg
  Inhibition(%): 67%

## NCCOc1ccc(CC(=O)NCCCc2cccc(C(F)(F)F)c2)cc1N [Example 42, N-{3-(3-trifluoromethylphenyl)propyl}-4-(2-aminoethoxy)-3-aminophenylacetamide]
[1]; p. o., dose 100 mg/Kg
  Inhibition(%): 40%
[3]; dose 11.1mg/Kg
  Convulsion: 0
  Salivation: 0
  Urination: 0
  Dyspnoea: 4
  Ptosis: 4
  Sedation: 4
  Vasodilation: 4
[3]; dose 33.3mg/Kg
  Convulsion: 0
  Salivation: 0
  Urination: 0
  Dyspnoea: 4
  Ptosis: 4
  Sedation: 4
  Vasodilation: 4
[3]; dose 100mg/Kg
  Convulsion: 0
  Salivation: 0
  Urination: 0
  Dyspnoea: 4
  Ptosis: 7
  Sedation: 7
  Vasodilation: 4

## Cc1ccc(CCCNC(=O)Cc2ccc(OCCN)c([N+](=O)[O-])c2)cc1C [Example 43, N-{3-(3,4-dimethylphenyl)propyl}-4-(2-aminoethoxy)-3-nitrophenylacetamide]
[4]
  ED50: 22.5 mg/kg

## CN1C(C(=O)Nc2ccccn2)=C(O)c2ccccc2S1(=O)=O [Piroxicam, reference compound]
[1]; p. o., dose 100 mg/Kg
  Inhibition(%): 0%
